Source: BindingDB's records for doi:10.1021/jm00123a006 (University of Pennsylvania, 1989)

Molecular target: 5-HT1A receptor (Bos taurus)
Assay: In vitro inhibition of [3H]5-HT (2 nM) binding to 5-hydroxytryptamine 1A receptor from bovine hippocampus

IC50: 0.035 µM
SMILES: [N-]=[N+]=Nc1ccc(CCN2CCN(c3cccc(C(F)(F)F)c3)CC2)cc1I
